Molecular target: human PDE10A2 (Homo sapiens (Human), UniProt Q9Y233)
Assay: PDE10 fluorescence polarization (IMAP FP) inhibition assay
Format: biochemical
Conditions: human PDE10A2, FAM-labeled cAMP substrate, read-out: PDE10A Ki
Procedure, shortened: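 Cytoplasmic lysate of AD293 cells transiently expressing human PDE10A2 (diluted to ~20% substrate conversion) incubated 30 min at room temperature with 50 nM FAM-cAMP in Tris pH 7.2 buffer with MgCl2, DTT. Activity read by IMAP fluorescence polarization. 0% inhibition set with 1% DMSO, 100% with reference PDE10 inhibitor.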

human PDE10A2, sequence (Q9Y233 267-1055): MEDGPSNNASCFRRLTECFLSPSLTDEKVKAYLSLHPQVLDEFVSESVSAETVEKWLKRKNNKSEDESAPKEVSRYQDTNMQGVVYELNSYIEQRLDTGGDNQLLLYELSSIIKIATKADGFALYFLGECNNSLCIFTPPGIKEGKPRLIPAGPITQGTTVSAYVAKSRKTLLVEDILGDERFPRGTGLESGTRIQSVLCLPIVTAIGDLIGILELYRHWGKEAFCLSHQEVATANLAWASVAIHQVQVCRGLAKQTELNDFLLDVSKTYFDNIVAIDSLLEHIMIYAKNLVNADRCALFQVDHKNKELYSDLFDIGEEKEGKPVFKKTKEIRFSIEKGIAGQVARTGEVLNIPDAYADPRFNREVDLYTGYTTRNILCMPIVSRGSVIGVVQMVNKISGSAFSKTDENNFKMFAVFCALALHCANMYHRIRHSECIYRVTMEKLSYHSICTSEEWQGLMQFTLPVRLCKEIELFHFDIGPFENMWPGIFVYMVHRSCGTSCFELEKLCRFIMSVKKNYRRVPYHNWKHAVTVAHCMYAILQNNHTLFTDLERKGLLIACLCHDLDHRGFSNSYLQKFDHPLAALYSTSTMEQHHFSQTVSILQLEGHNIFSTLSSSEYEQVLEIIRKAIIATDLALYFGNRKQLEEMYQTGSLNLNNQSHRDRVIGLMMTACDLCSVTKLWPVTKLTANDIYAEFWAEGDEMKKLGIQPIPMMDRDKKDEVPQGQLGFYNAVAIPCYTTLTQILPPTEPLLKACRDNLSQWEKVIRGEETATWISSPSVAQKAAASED

Row | SMILES | Ki [nM]
1 | COc1ccc([C@H]2C[C@@H]2COc2nc(C)ncc2-c2ccn(C)c(=O)c2C#N)nc1 [Example 104, 4-(4-(((1S,2S)-2-(5-methoxypyridin-2-yl)cyclopropyl)methoxy)-2-methylpyrimidin-5-yl)-1-methyl-2-oxo-1,2-dihydropyridine-3-carbonitrile] | 8.16
2 | Cc1ccc([C@H]2C[C@@H]2COc2nc(C)ncc2-c2ccn(CC(F)F)c(=O)c2)nc1 [Example 106, 1-(2,2-difluoroethyl)-4-(2-methyl-4-(((1S,2S)-2-(5-methylpyridin-2-yl)cyclopropyl)methoxy)pyrimidin-5-yl)pyridin-2(1H)-one] | 1.81
3 | Cc1ncc(-c2ccn(C)c(=O)c2)c(OC[C@H]2C[C@@H]2c2ccc(Cl)cn2)n1 [Example 107, 4-(4-(((1S,2S)-2-(5-chloropyridin-2-yl)cyclopropyl)methoxy)-2-methylpyrimidin-5-yl)-1-methylpyridin-2(1H)-one] | 14.7
4 | CCOC(=O)c1cn(C)c(=O)cc1-c1cnc(C)nc1OC[C@H]1C[C@@H]1c1ccc(OC)cn1 [Example 108, ethyl 4-(4-(((1S,2S)-2-(5-methoxypyridin-2-yl)cyclopropyl)methoxy)-2-methylpyrimidin-5-yl)-1-methyl-6-oxo-1,6-dihydropyridine-3-carboxylate] | 100
5 | COc1ccc([C@H]2C[C@@H]2COc2nc(C)ncc2-c2ccn(CCC#N)c(=O)c2)nc1 [Example 112, 3-(4-(4-(((1S,2S)-2-(5-methoxypyridin-2-yl)cyclopropyl)methoxy)-2-methylpyrimidin-5-yl)-2-oxopyridin-1(2H)-yl)propanenitrile] | 0.944
6 | COc1ccc([C@H]2C[C@@H]2COc2nc(C)ncc2-c2ccn(C)c(=O)c2SC)nc1 [Example 115, 4-(4-(((1S,2S)-2-(5-methoxypyridin-2-yl)cyclopropyl)methoxy)-2-methylpyrimidin-5-yl)-1-methyl-3-(methylthio)pyridin-2(1H)-one] | 18
7 | Cc1ccc([C@H]2C[C@@H]2COc2nc(C)ncc2-c2ccn(C(F)F)c(=O)c2)nc1 [Example 116, 1-(difluoromethyl)-4-(2-methyl-4-(((1S,2S)-2-(5-methylpyridin-2-yl)cyclopropyl)methoxy)pyrimidin-5-yl)pyridin-2(1H)-one] | 1.83
8 | COc1ccc([C@H]2C[C@@H]2COc2nc(C)ncc2-c2ccn(C(F)F)c(=O)c2)nc1 [Example 117, 1-(difluoromethyl)-4-(4-(((1S,2S)-2-(5-methoxypyridin-2-yl)cyclopropyl)methoxy)-2-methylpyrimidin-5-yl)pyridin-2(1H)-one] | 1.93

Now those with a lower Ki, led by results:

Row | Ki [nM] | SMILES
9 | 0.8 | COc1ccc([C@H]2C[C@@H]2COc2nc(C)ncc2-c2cc(C)n(C)c(=O)c2)nc1 [Example 113, 4-(4-(((1S,2S)-2-(5-methoxypyridin-2-yl)cyclopropyl)methoxy)-2-methylpyrimidin-5-yl)-1,6-dimethylpyridin-2(1H)-one]
10 | 0.74 | Cc1ccc([C@H]2C[C@@H]2COc2nc(C)ncc2-c2ccn(CC(F)(F)F)c(=O)c2)nc1 [Example 105, 4-(2-methyl-4-(((1S,2S)-2-(5-methylpyridin-2-yl)cyclopropyl)methoxy)pyrimidin-5-yl)-1-(2,2,2-trifluoroethyl)pyridin-2(1H)-one]
11 | 0.441 | COc1ccc([C@H]2C[C@@H]2COc2nc(C)ncc2-c2ccn(CC#N)c(=O)c2)nc1 [Example 111, 2-(4-(4-(((1S,2S)-2-(5-methoxypyridin-2-yl)cyclopropyl)methoxy)-2-methylpyrimidin-5-yl)-2-oxopyridin-1(2H)-yl)acetonitrile]
12 | 0.378 | Cc1ncc(-c2ccn(C)c(=O)c2)c(OC[C@H]2C[C@@H]2c2ccc3c(n2)CCC3)n1 [Example 114, 4-(4-(((1S,2S)-2-(6,7-dihydro-5H-cyclopenta[b]pyridin-2-yl)cyclopropyl)methoxy)-2-methylpyrimidin-5-yl)-1-methylpyridin-2(1H)-one]

Source: patent US9273033B2, “Substituted pyridone derivatives as PDE10 inhibitors” (Merck Sharp & Dohme Corp., priority 2012, dated 2016)
